assay: physchem; details: octanol/buffer

logP	Compound
5.22	COCCCc1cc(CN(C(=O)[C@H]2CNCC(=O)N2c2ccc(OCCOc3c(Cl)cc(C)cc3Cl)cc2)C2CC2)c(Cl)cn1
5.42	CNC(=O)CCc1ccc(Cl)c(CN(C(=O)[C@H]2CNCC(=O)N2c2ccc(CCCOc3cccc(Cl)c3)cc2)C2CC2)c1
5.56	Cc1cc(Cl)c(OCCOc2ccc(N3C(=O)CNC[C@@H]3C(=O)N(Cc3cc(CCNC4CC4)ccc3Cl)C3CC3)cn2)c(Cl)c1
5.37	CC(=O)NCc1ccc(Cl)c(CN(C(=O)[C@H]2CNCC(=O)N2c2ccc(CCCOc3cccc(Cl)c3)cc2)C2CC2)c1
4.35	Cc1cc(Cl)c(OCCOc2ccc(N3C(=O)CNC[C@@H]3C(=O)N(C)Cc3ccccc3Cl)cn2)c(Cl)c1
4.41	COc1ccccc1COCCCOc1ccc(N2C(=O)CNC[C@@H]2C(=O)N(C)Cc2ccccc2Cl)cc1
5.65	CNCc1ccc(Cl)c(CN(C(=O)[C@H]2CNCC(=O)N2c2ccc(OCCOc3c(Cl)cc(C)cc3Cl)cc2)C2CC2)c1
5.24	Cc1cc(Cl)c(OCCOc2ccc(N3C(=O)CNC[C@@H]3C(=O)N(Cc3cc(CNCC(F)F)ccc3Cl)C3CC3)cn2)c(Cl)c1
5.32	COCCc1ccc(Cl)c(CN(C(=O)[C@H]2CNCC(=O)N2c2ccc(OCCCOCc3ccccc3)cc2)C2CC2)c1
5.48	Cc1cc(Cl)c(OCCOc2ccc(N3C(=O)CNC[C@@H]3C(=O)N(Cc3cc(CNC4CC4)ccc3Cl)C3CC3)cn2)c(Cl)c1
4.66	O=C(OCc1ccc(N2C(=O)CNC[C@@H]2C(=O)N(Cc2cc(CNCCF)ccc2Cl)C2CC2)cc1)c1ccccc1
2.34	COc1ccccc1COCCCOc1ncc(N2C(=O)CNC[C@@H]2C(=O)N(C)CCCc2ccccc2)cn1
6	O=C(CC(F)(F)F)NCCc1ccc(Cl)c(CN(C(=O)[C@H]2CNCC(=O)N2c2ccc(CCCOc3c(F)ccc(F)c3F)cc2)C2CC2)c1
4.49	COCCCc1cc(CN(C(=O)[C@H]2CNCC(=O)N2c2ccc(OCCCOCc3ccccc3)cc2)C2CC2)c(Cl)cn1
4.39	COCCCc1cc(CN(C(=O)[C@H]2CNCC(=O)N2c2ccc(OCCOc3c(Cl)cc(C)cc3Cl)nc2)C2CC2)c(Cl)cn1
4.57	CNC(=O)CCc1ccc(Cl)c(CN(C(=O)[C@H]2CNCC(=O)N2c2ccc(OCCCOCc3ccccc3OC)cc2)C2CC2)c1
4.96	O=C(OCc1ccc(N2C(=O)CNC[C@@H]2C(=O)N(Cc2cc(CNCC(F)F)ccc2Cl)C2CC2)cc1)c1ccccc1
6.28	CC(C)(C)OCC(=O)NCCc1ccc(Cl)c(CN(C(=O)[C@H]2CNCC(=O)N2c2ccc(CCCOc3c(F)ccc(F)c3F)cc2)C2CC2)c1
2.86	COc1ccccc1COCCCOc1ncc(N2C(=O)CNC[C@@H]2C(=O)N(Cc2cc(CNC(=O)C3CC3)ccc2Cl)C2CC2)cn1
4.75	CN(CCc1ccccc1)C(=O)[C@H]1CNCC(=O)N1c1ccc(CCCOc2cccc(Cl)c2)cc1
5.06	COc1ccccc1COCCCOc1ccc(N2C(=O)CNC[C@@H]2C(=O)N(Cc2cccc(C)c2C)C2CC2)cc1
5.67	CCC(=O)NCc1ccc(Cl)c(CN(C(=O)[C@H]2CNCC(=O)N2c2ccc(CCCOc3c(F)ccc(F)c3F)cc2)C2CC2)c1
6.32	O=C([C@H]1CNCC(=O)N1c1ccc(CCCOc2c(F)ccc(F)c2F)cc1)N(Cc1cccc(Cl)c1Cl)C1CC1
3.56	Cc1cc(Cl)c(OCCOc2ccc(N3C(=O)CNC[C@@H]3C(=O)NCc3ccccc3)cn2)c(Cl)c1
5.49	CCNC(=O)Cc1ccc(Cl)c(CN(C(=O)[C@H]2CNCC(=O)N2c2ccc(CCCOc3c(F)ccc(F)c3F)cc2)C2CC2)c1

logP	Compound
6.29	O=C([C@H]1CNCC(=O)N1c1ccc(CCCOc2c(F)ccc(F)c2F)cc1)N(Cc1cc(CCNC2CC2)ccc1Cl)C1CC1
6.49	O=C([C@H]1CNCC(=O)N1c1ccc(CCCOc2cccc(Cl)c2)cc1)N(Cc1cccc(Cl)c1Cl)C1CC1
4.82	CCNC(=O)Cc1ccc(Cl)c(CN(C(=O)[C@H]2CNCC(=O)N2c2ccc(OCCCOCc3ccccc3OC)cc2)C2CC2)c1
3.67	O=C(NCc1ccccc1)[C@H]1CNCC(=O)N1c1ccc(OCCCOCc2ccccc2)cc1
4.92	O=C(NCc1ccc(Cl)c(CN(C(=O)[C@H]2CNCC(=O)N2c2ccc(OCCCOCc3ccccc3)cc2)C2CC2)c1)C1CC1
6.3	Cc1cc(Cl)c(OCCOc2ccc(N3C(=O)CNC[C@@H]3C(=O)N(Cc3cc(CNC4CC4)ccc3Cl)C3CC3)cc2)c(Cl)c1
5.33	COCCCc1cc(CN(C(=O)[C@H]2CNCC(=O)N2c2ccc(CCCOc3c(F)ccc(F)c3F)cc2)C2CC2)c(Cl)c[n+]1[O-]
5.01	Cc1cc(Cl)c(OCCOc2ccc(N3C(=O)CNC[C@@H]3C(=O)N(Cc3ccc(Cl)cc3)C3CC3)cn2)c(Cl)c1
5.38	CC(=O)NCCc1ccc(Cl)c(CN(C(=O)[C@H]2CNCC(=O)N2c2ccc(OCCOc3c(Cl)cc(C)cc3Cl)cc2)C2CC2)c1
5.58	CNC(=O)OCc1ccc(Cl)c(CN(C(=O)[C@H]2CNCC(=O)N2c2ccc(OCCOc3c(Cl)cc(C)cc3Cl)cc2)C2CC2)c1
5.1	COc1ccccc1COCCCOc1ccc(N2C(=O)CNC[C@@H]2C(=O)N(Cc2cccc(Cl)c2)C2CC2)cc1
4.24	CNC(=O)CCc1ccc(Cl)c(CN(C(=O)[C@H]2CNCC(=O)N2c2ccc(COC(=O)c3ccccc3)cc2)C2CC2)c1
3.37	COc1ccccc1COCCCOc1ncc(N2C(=O)CNC[C@@H]2C(=O)N(Cc2cc(CCNCC(F)F)ccc2Cl)C2CC2)cn1
5.19	CC(=O)NCc1ccc(Cl)c(CN(C(=O)[C@H]2CNCC(=O)N2c2ccc(CCCOc3c(F)ccc(F)c3F)cc2)C2CC2)c1
4.52	COc1ccccc1COCCCOc1ccc(N2C(=O)CNC[C@@H]2C(=O)N(Cc2cc(CNC(C)=O)ccc2Cl)C2CC2)cc1
4.95	COCCc1ccc(Cl)c(CN(C(=O)[C@H]2CNCC(=O)N2c2ccc(COC(=O)c3ccccc3)cc2)C2CC2)c1
4.45	CN(Cc1ccccc1Cl)C(=O)[C@H]1CNCC(=O)N1c1ccc(OCCCOCc2ccccc2)cc1
3.49	COc1c(CN(C(=O)[C@H]2CNCC(=O)N2c2ccc(OCCCOCc3ccccc3)cc2)C2CC2)ccnc1C
4.43	CNC(=O)Cc1ccc(Cl)c(CN(C(=O)[C@H]2CNCC(=O)N2c2ccc(OCCOc3c(Cl)cc(C)cc3Cl)nc2)C2CC2)c1
6.39	COCCCc1ccc(Cl)c(CN(C(=O)[C@H]2CNCC(=O)N2c2ccc(CCCOc3c(F)ccc(F)c3F)cc2)C2CC2)c1
6.09	O=C(CC(F)(F)F)NCc1ccc(Cl)c(CN(C(=O)[C@H]2CNCC(=O)N2c2ccc(CCCOc3cccc(Cl)c3)cc2)C2CC2)c1
5.8	O=C(Cc1ccc(Cl)c(CN(C(=O)[C@H]2CNCC(=O)N2c2ccc(CCCOc3c(F)ccc(F)c3F)cc2)C2CC2)c1)NC1CC1
4.82	Cc1cc(Cl)c(OCCOc2ccc(N3C(=O)CNC[C@@H]3C(=O)N(Cc3cc(CNC(=O)C4CC4)ccc3Cl)C3CC3)cn2)c(Cl)c1
4.98	CCNCCc1ccc(Cl)c(CN(C(=O)[C@H]2CNCC(=O)N2c2ccc(COC(=O)c3ccccc3)cc2)C2CC2)c1
6.38	O=C([C@H]1CNCC(=O)N1c1ccc(CCCOc2cccc(Cl)c2)cc1)N(Cc1cc(CNC2CC2)ccc1Cl)C1CC1

logP	Compound
3.32	COc1ccccc1COCCCOc1ncc(N2C(=O)CNC[C@@H]2C(=O)N(Cc2cc(CCNC(=O)CC(F)(F)F)ccc2Cl)C2CC2)cn1
4.48	CNC(=O)Cc1ccc(Cl)c(CN(C(=O)[C@H]2CNCC(=O)N2c2ccc(OCCCOCc3ccccc3OC)cc2)C2CC2)c1
5.77	Cc1cc(Cl)c(OCCOc2ccc(N3C(=O)CNC[C@@H]3C(=O)N(Cc3cc(CNCCF)ccc3Cl)C3CC3)cc2)c(Cl)c1
4.44	COCCCc1cc(CN(C(=O)[C@H]2CNCC(=O)N2c2ccc(OCCCOCc3ccccc3OC)cc2)C2CC2)c(Cl)cn1
4.29	O=C(NCc1ccccc1)[C@H]1CNCC(=O)N1c1ccc(CCCOc2c(F)ccc(F)c2F)cc1
4.52	CNC(=O)CCc1ccc(Cl)c(CN(C(=O)[C@H]2CNCC(=O)N2c2ccc(OCCOc3c(Cl)cc(C)cc3Cl)nc2)C2CC2)c1
5	Cc1cc(Cl)c(OCCOc2ccc(N3C(=O)CNC[C@@H]3C(=O)N(Cc3ccccc3Cl)C3CC3)cn2)c(Cl)c1
6.08	CCNCCc1ccc(Cl)c(CN(C(=O)[C@H]2CNCC(=O)N2c2ccc(OCCOc3c(Cl)cc(C)cc3Cl)cc2)C2CC2)c1
5.22	CCNCc1ccc(Cl)c(CN(C(=O)[C@H]2CNCC(=O)N2c2ccc(OCCCOCc3ccccc3OC)cc2)C2CC2)c1
5.29	CC(=O)NCc1ccc(Cl)c(CN(C(=O)[C@H]2CNCC(=O)N2c2ccc(OCCOc3c(Cl)cc(C)cc3Cl)cc2)C2CC2)c1
5.9	O=C([C@H]1CNCC(=O)N1c1ccc(CCCOc2cccc(Cl)c2)cc1)N(Cc1ccccc1Cl)C1CC1
4.22	COc1c(CN(C(=O)[C@H]2CNCC(=O)N2c2ccc(OCCOc3c(Cl)cc(C)cc3Cl)cc2)C2CC2)ccnc1C
3.28	COc1ccccc1COCCCOc1ncc(N2C(=O)CNC[C@@H]2C(=O)N(Cc2cc(CNCC(F)F)ccc2Cl)C2CC2)cn1
5.76	COCCCc1ccc(Cl)c(CN(C(=O)[C@H]2CNCC(=O)N2c2ccc(OCCCOCc3ccccc3)cc2)C2CC2)c1
5.99	CCNCc1ccc(Cl)c(CN(C(=O)[C@H]2CNCC(=O)N2c2ccc(OCCOc3c(Cl)cc(C)cc3Cl)cc2)C2CC2)c1
5.45	CC(=O)NCCc1ccc(Cl)c(CN(C(=O)[C@H]2CNCC(=O)N2c2ccc(CCCOc3cccc(Cl)c3)cc2)C2CC2)c1
5.26	CNC(=O)Cc1ccc(Cl)c(CN(C(=O)[C@H]2CNCC(=O)N2c2ccc(OCCOc3c(Cl)cc(C)cc3Cl)cc2)C2CC2)c1
4.81	CNC(=O)OCc1ccc(Cl)c(CN(C(=O)[C@H]2CNCC(=O)N2c2ccc(OCCCOCc3ccccc3OC)cc2)C2CC2)c1
4.15	CNC(=O)Cc1ccc(Cl)c(CN(C(=O)[C@H]2CNCC(=O)N2c2ccc(COC(=O)c3ccccc3)cc2)C2CC2)c1
5	CCC(=O)NCc1ccc(Cl)c(CN(C(=O)[C@H]2CNCC(=O)N2c2ccc(OCCCOCc3ccccc3OC)cc2)C2CC2)c1
4.81	COC(=O)NCc1ccc(Cl)c(CN(C(=O)[C@H]2CNCC(=O)N2c2ccc(OCCCOCc3ccccc3OC)cc2)C2CC2)c1
4.9	CNC(=O)OCCc1ccc(Cl)c(CN(C(=O)[C@H]2CNCC(=O)N2c2ccc(OCCCOCc3ccccc3OC)cc2)C2CC2)c1
3.82	COc1ccccc1COCCCOc1ccc(N2C(=O)CNC[C@@H]2C(=O)N(C)Cc2ccccc2)cc1

same assay, conditions: octanol/water

Compound	logP
COc1ccccc1COCCCOc1ncc(N2C(=O)CNC[C@@H]2C(=O)NCc2ccccc2Cl)cn1	2.2

Source: ChEMBL document CHEMBL1944551, “An integrated computational workflow for efficient and quantitative modeling of renin inhibitors” (Bioorg Med Chem, 2012)
